Results: US20120045393A1 (priority 2009, published 2012)
Non-standard residues stand in square brackets, D forms with d. Residues, ends and D or L forms follow the SMILES beside them. *: point of attachment. DOTA = O=C(O)CN1CCN(CC(=O)O)CCN(CC(=O)*)CCN(CC(=O)O)CC1; Bpa = N[C@@H](Cc1ccc(C(=O)c2ccccc2)cc1)C(=O)O; d2Nal = N[C@H](Cc1ccc2ccccc2c1)C(=O)O; azaGly = NNC(=O)O

Tested on: LHRH binding sites on human ovarian cancer cells (EFO-27)
Settings: not given
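Further: Cell-associated radioactivity on confluent EFO-27 monolayers in 96-well plates, measured by microplate scintillation counting.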

EC50 [nM]	SMILES
450	COc1ccccc1CNC(=O)[C@@H]1CCCN1C(=O)[C@H](Cc1ccc(C(=O)c2ccccc2)cc1)NC(=O)[C@H](Cc1c[nH]c2ccccc12)NC(=O)[C@@H](CCCNC(=N)N)NC(=O)[C@H](Cc1c[nH]cn1)NC(=O)[C@H](CO)NC(=O)[C@H](Cc1c[nH]c2ccccc12)NC(=O)[C@H](CCCNC(=N)N)NC(=O)[C@@H](Cc1ccc2ccccc2c1)NC(=O)CN1CCN(CC(=O)O)CCN(CC(=O)O)CCN(CC(=O)O)CC1 [compound 3020]
8540	NCCCC[C@@H](NC(=O)[C@H](Cc1c[nH]cn1)NC(=O)[C@H](CO)NC(=O)[C@H](Cc1c[nH]c2ccccc12)NC(=O)[C@H](Cc1c[nH]cn1)NC(=O)[C@@H]1CCC(=O)N1)C(=O)N[C@@H](Cc1c[nH]c2ccccc12)C(=O)N[C@@H](Cc1ccc(O)cc1)C(=O)N1CCC[C@H]1C(=O)NNC(N)=O [BRU-2437] (HELM PEPTIDE1{[Glp].H.W.S.H.[dK].W.Y.P.[O=C(NN[*:1])[*:2]].[am]}$$$$V2.0)
220	CSCC[C@H](NC(=O)[C@H](Cc1c[nH]c2ccccc12)NC(=O)[C@H](CCCNC(=N)N)NC(=O)[C@@H](Cc1ccc2ccccc2c1)NC(=O)CN1CCN(CC(=O)O)CCN(CC(=O)O)CCN(CC(=O)O)CC1)C(=O)N[C@@H](Cc1c[nH]cn1)C(=O)N[C@H](CCCNC(=N)N)C(=O)N[C@@H](Cc1c[nH]c2ccccc12)C(=O)N[C@@H](Cc1ccc(C(=O)c2ccccc2)cc1)C(=O)N1CCC[C@H]1C(=O)NNC(N)=O [BRU-2964] ({DOTA}-[d2Nal]RWMH[dR]W[Bpa]P[azaGly]-NH2)
590 ± 260	CNCC(=O)N[C@@H](Cc1c[nH]cn1)C(=O)N[C@@H](Cc1c[nH]c2ccccc12)C(=O)N[C@@H](CO)C(=O)N[C@@H](Cc1c[nH]cn1)C(=O)N[C@H](CCCNC(=N)N)C(=O)N[C@@H](Cc1c[nH]c2ccccc12)C(=O)N[C@@H](Cc1ccc(C(=O)c2ccccc2)cc1)C(=O)N1CCC[C@H]1C(=O)NCCNC(=O)CN1CCN(CC(=O)O)CCN(CC(=O)O)CCN(CC(=O)O)CC1 [compound 3079]
4550	CN(CC(=O)N[C@@H](Cc1c[nH]cn1)C(=O)N[C@@H](Cc1c[nH]c2ccccc12)C(=O)N[C@@H](CO)C(=O)N[C@@H](Cc1c[nH]cn1)C(=O)N[C@H](CCCNC(=N)N)C(=O)N[C@@H](Cc1c[nH]c2ccccc12)C(=O)N[C@H](C(=O)N1CCC[C@H]1C(=O)NNC(N)=O)C(c1ccccc1)c1ccccc1)C(=O)CN1CCN(CC(=O)O)CCN(CC(=O)O)CCN(CC(=O)O)CC1 [BRU-2721]
4620	CN(CC(=O)N[C@@H](Cc1c[nH]cn1)C(=O)N[C@@H](Cc1c[nH]c2ccccc12)C(=O)N[C@@H](CO)C(=O)N[C@@H](Cc1c[nH]cn1)C(=O)N[C@H](CCCNC(=N)N)C(=O)N[C@@H](Cc1c[nH]c2ccccc12)C(=O)N[C@@H](Cc1c(F)c(F)c(F)c(F)c1F)C(=O)N1CCC[C@H]1C(=O)NNC(N)=O)C(=O)CN1CCN(CC(=O)O)CCN(CC(=O)O)CCN(CC(=O)O)CC1 [BRU-2722]
540	CN(CC(=O)N[C@@H](Cc1c[nH]cn1)C(=O)N[C@@H](Cc1c[nH]c2ccccc12)C(=O)N[C@@H](CO)C(=O)N[C@@H](Cc1c[nH]cn1)C(=O)N[C@H](CCCNC(=N)N)C(=O)N[C@@H](Cc1c[nH]c2ccccc12)C(=O)N[C@@H](Cc1cccc2ccccc12)C(=O)N1CCC[C@H]1C(=O)NNC(N)=O)C(=O)CN1CCN(CC(=O)O)CCN(CC(=O)O)CCN(CC(=O)O)CC1 [BRU-2720]
230 to 500	CNCC(=O)N[C@@H](CCCNC(=N)N)C(=O)N[C@@H](Cc1c[nH]c2ccccc12)C(=O)N[C@@H](CO)C(=O)N[C@@H](Cc1c[nH]cn1)C(=O)N[C@H](CCCNC(=N)N)C(=O)N[C@@H](Cc1c[nH]c2ccccc12)C(=O)N[C@@H](Cc1ccc(C(=O)c2ccccc2)cc1)C(=O)N1CCC[C@H]1C(=O)NCCCCCNC(=O)CN1CCN(CC(=O)O)CCN(CC(=O)O)CCN(CC(=O)O)CC1 [BRU-3085]
230 to 500	CNCC(=O)N[C@@H](CCCNC(=N)N)C(=O)N[C@@H](Cc1c[nH]c2ccccc12)C(=O)N[C@@H](CO)C(=O)N[C@@H](Cc1c[nH]cn1)C(=O)N[C@H](CCCNC(=N)N)C(=O)N[C@@H](Cc1c[nH]c2ccccc12)C(=O)N[C@@H](Cc1ccc(C(=O)c2ccccc2)cc1)C(=O)N1CCC[C@H]1C(=O)NCc1cccc(CNC(=O)CN2CCN(CC(=O)O)CCN(CC(=O)O)CCN(CC(=O)O)CC2)n1 [BRU-3080]
410	N=C(N)NCCC[C@H](NC(=O)[C@@H](Cc1ccc2ccccc2c1)NC(=O)[C@@H](N)CCCCNC(=O)CN1CCN(CC(=O)O)CCN(CC(=O)O)CCN(CC(=O)O)CC1)C(=O)N[C@@H](Cc1c[nH]c2ccccc12)C(=O)N[C@@H](CO)C(=O)N[C@@H](Cc1c[nH]cn1)C(=O)N[C@H](CCCNC(=N)N)C(=O)N[C@@H](Cc1c[nH]c2ccccc12)C(=O)N[C@@H](Cc1ccc(C(=O)c2ccccc2)cc1)C(=O)N1CCC[C@H]1C(=O)NNC(N)=O [BRU 3098]
360 ± 20	CNCC(=O)N[C@@H](CCCNC(=N)N)C(=O)N[C@@H](Cc1c[nH]c2ccccc12)C(=O)N[C@@H](CO)C(=O)N[C@@H](Cc1c[nH]cn1)C(=O)N[C@H](CCCNC(=N)N)C(=O)N[C@@H](Cc1c[nH]c2ccccc12)C(=O)N[C@@H](Cc1ccc(C(=O)c2ccccc2)cc1)C(=O)N1CCC[C@H]1C(=O)NCCCCNC(=O)CN1CCN(CC(=O)O)CCN(CC(=O)O)CCN(CC(=O)O)CC1 [compound 3041]
840	N=C(N)NCCC[C@H](NC(=O)[C@@H](Cc1ccc2ccccc2c1)NC(=O)CN1CCN(CC(=O)O)CCN(CC(=O)O)CCN(CC(=O)O)CC1)C(=O)N[C@@H](Cc1c[nH]c2ccccc12)C(=O)N[C@@H](Cc1ccncc1)C(=O)N[C@@H](Cc1c[nH]cn1)C(=O)N[C@H](CCCNC(=N)N)C(=O)N[C@@H](Cc1c[nH]c2ccccc12)C(=O)N[C@@H](Cc1ccc(C(=O)c2ccccc2)cc1)C(=O)N1CCC[C@H]1C(=O)NNC(N)=O [compound 2957]
450	N=C(N)NCCC[C@H](NC(=O)[C@@H](Cc1ccc2ccccc2c1)NC(=O)CN1CCN(CC(=O)O)CCN(CC(=O)O)CCN(CC(=O)O)CC1)C(=O)N[C@@H](Cc1c[nH]c2ccccc12)C(=O)N[C@@H](CO)C(=O)N[C@@H](Cc1c[nH]cn1)C(=O)N[C@H](CCCNC(=N)N)C(=O)N[C@@H](Cc1c[nH]c2ccccc12)C(=O)N[C@@H](Cc1ccc(C(=O)c2ccccc2)cc1)C(=O)N1CCC[C@H]1C(=O)N[C@H](CO)Cc1ccccc1 [compound 2983]
230 to 500	CNCC(=O)N[C@@H](CCCNC(=N)N)C(=O)N[C@@H](Cc1c[nH]c2ccccc12)C(=O)N[C@@H](CO)C(=O)N[C@@H](Cc1c[nH]cn1)C(=O)N[C@H](CCCNC(=N)N)C(=O)N[C@@H](Cc1c[nH]c2ccccc12)C(=O)N[C@@H](Cc1ccc(C(=O)c2ccccc2)cc1)C(=O)N1CCC[C@H]1C(=O)NCCOCCOCCNC(=O)CN1CCN(CC(=O)O)CCN(CC(=O)O)CCN(CC(=O)O)CC1 [BRU-3043]
470 ± 20	CC(=O)N[C@H](Cc1ccc2ccccc2c1)C(=O)N[C@@H](CCCNC(=N)N)C(=O)N[C@@H](Cc1c[nH]c2ccccc12)C(=O)N[C@@H](CO)C(=O)N[C@@H](Cc1c[nH]cn1)C(=O)N[C@H](CCCNC(=N)N)C(=O)N[C@@H](Cc1c[nH]c2ccccc12)C(=O)N[C@@H](Cc1ccc(C(=O)c2ccccc2)cc1)C(=O)N1CCC[C@H]1C(=O)NCCOCCNC(=O)CN1CCN(CC(=O)O)CCN(CC(=O)O)CCN(CC(=O)O)CC1 [compound 2992]

Same assay, conditions: BRU-2813 vs BRU-2666; BRU-2964 vs BRU-2813

SMILES	more potency than the comparator analog [%]
CSCC[C@H](NC(=O)[C@H](Cc1c[nH]c2ccccc12)NC(=O)[C@H](CCCNC(=N)N)NC(=O)[C@@H](Cc1ccc2ccccc2c1)NC(=O)CN1CCN(CC(=O)O)CCN(CC(=O)O)CCN(CC(=O)O)CC1)C(=O)N[C@@H](Cc1c[nH]cn1)C(=O)N[C@H](CCCNC(=N)N)C(=O)N[C@@H](Cc1c[nH]c2ccccc12)C(=O)N[C@@H](Cc1ccc(C(=O)c2ccccc2)cc1)C(=O)N1CCC[C@H]1C(=O)NNC(N)=O [BRU-2964] ({DOTA}-[d2Nal]RWMH[dR]W[Bpa]P[azaGly]-NH2)	30

Same assay, conditions: EFO-27 cells, competition with [125I-Tyr8]BRU-2477, 90 min

SMILES	EC50 [nM]
N=C(N)NCCC[C@H](NC(=O)[C@@H](Cc1ccc2ccccc2c1)NC(=O)CN1CCN(CC(=O)O)CCN(CC(=O)O)CCN(CC(=O)O)CC1)C(=O)N[C@@H](Cc1c[nH]c2ccccc12)C(=O)N[C@@H](CO)C(=O)N[C@@H](Cc1c[nH]cn1)C(=O)N[C@H](CCCNC(=N)N)C(=O)N[C@@H](Cc1c[nH]c2ccccc12)C(=O)N[C@@H](Cc1ccc(C(=O)c2ccccc2)cc1)C(=O)N1CCCC[C@H]1C(=O)NNC(N)=O [compound 2996]	350
N=C(N)NCCC[C@H](NC(=O)[C@@H](Cc1ccc2ccccc2c1)NC(=O)CN1CCN(CC(=O)O)CCN(CC(=O)O)CCN(CC(=O)O)CC1)C(=O)N[C@@H](Cc1c[nH]c2ccccc12)C(=O)N[C@@H](CO)C(=O)N[C@@H](Cc1c[nH]cn1)C(=O)N[C@H](CCCNC(=N)N)C(=O)N[C@@H](Cc1c[nH]c2ccccc12)C(=O)N[C@@H](Cc1ccc(C(=O)c2ccccc2)cc1)C(=O)N1CC[C@H]1C(=O)NNC(N)=O [compound 2993]	380

Same assay, conditions: Table 5: modifications of amino acids at positions 1 and 2; in vitro binding on EFO-27 cells

SMILES	EC50 [nM]
CN(CC(=O)N[C@@H](Cc1cn(C)cn1)C(=O)N[C@@H](Cc1c[nH]c2ccccc12)C(=O)N[C@@H](CO)C(=O)N[C@@H](Cc1c[nH]cn1)C(=O)N[C@H](CCCNC(=N)N)C(=O)N[C@@H](Cc1c[nH]c2ccccc12)C(=O)N[C@@H](Cc1ccc(C(=O)c2ccccc2)cc1)C(=O)N1CCC[C@H]1C(=O)NNC(N)=O)C(=O)CN1CCN(CC(=O)O)CCN(CC(=O)O)CCN(CC(=O)O)CC1 [BRU-2741]	2990
CN(CC(=O)N[C@@H](CCCNC(=N)N)C(=O)N[C@@H](Cc1c[nH]c2ccccc12)C(=O)N[C@@H](CO)C(=O)N[C@@H](Cc1c[nH]cn1)C(=O)N[C@H](CCCNC(=N)N)C(=O)N[C@@H](Cc1c[nH]c2ccccc12)C(=O)N[C@@H](Cc1ccc(C(=O)c2ccccc2)cc1)C(=O)N1CCC[C@H]1C(=O)NNC(N)=O)C(=O)CN1CCN(CC(=O)O)CCN(CC(=O)O)CCN(CC(=O)O)CC1 [BRU-2817]	1700
N=C(N)NCCC[C@H](NC(=O)[C@@H]1Cc2ccccc2CN1C(=O)CNC(=O)CN1CCN(CC(=O)O)CCN(CC(=O)O)CCN(CC(=O)O)CC1)C(=O)N[C@@H](Cc1c[nH]c2ccccc12)C(=O)N[C@@H](CO)C(=O)N[C@@H](Cc1c[nH]cn1)C(=O)N[C@H](CCCNC(=N)N)C(=O)N[C@@H](Cc1c[nH]c2ccccc12)C(=O)N[C@@H](Cc1ccc(C(=O)c2ccccc2)cc1)C(=O)N1CCC[C@H]1C(=O)NNC(N)=O [BRU-3052]	550

Same assay, conditions: Table 12: modification of amino acid at position 3; EFO-27 cells

SMILES	EC50 [nM]
N=C(N)NCCC[C@H](NC(=O)[C@@H](Cc1ccc2ccccc2c1)NC(=O)CN1CCN(CC(=O)O)CCN(CC(=O)O)CCN(CC(=O)O)CC1)C(=O)N[C@H](Cc1c[nH]c2ccccc12)C(=O)N[C@@H](CO)C(=O)N[C@@H](Cc1c[nH]cn1)C(=O)N[C@H](CCCNC(=N)N)C(=O)N[C@@H](Cc1c[nH]c2ccccc12)C(=O)N[C@@H](Cc1ccc(C(=O)c2ccccc2)cc1)C(=O)N1CCC[C@H]1C(=O)NNC(N)=O [compound 3112]	850
